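A five-concentration, 48-hour dose response in 96-well plates underlies each endpoint, interpolated linearly between surrounding concentrations. The concentration for 50% growth inhibition is given as GI50.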 Active and inactive are the calls of the source. Cut-off read from the data, not from the text of the source: active = GI50 up to about 1.1 µM and inactive = higher.

Some test systems named below: CCRF-CEM; COLO 205; DU-145; HCT-116; K562; LOX IMVI; M14; MCF7; MOLT-4; Malme-3M; NCI-H23; NCI-H460; NCI/ADR-RES; OVCAR-5; SK-MEL-5; SNB-19; UO-31; SF-539; A498.
Test in all cases: inhibition of tumour cell growth, NCI panel, 48 h

For the compound `C[n+]1ccc2/c(=C\C#N)c3ccccc3n21`, the GI50 in the assay with CCRF-CEM was 20 µM (inactive); in the assay on COLO 205, 19.7 µM (inactive); in the assay on DU-145 it was 15.8 µM (inactive); in the assay on HCT-116 it was 29.7 µM (inactive); in the assay with K562 it was 61.2 µM (inactive); in the assay with LOX IMVI, 15.9 µM (inactive). Besides, the GI50 is 48.2 µM (inactive) with M14; 20.5 µM (inactive) with MCF7; 30.8 µM (inactive) with MOLT-4; 17.1 µM (inactive) in the assay on Malme-3M; 11.4 µM (inactive) in the assay with NCI-H23; 31 µM (inactive) in the assay on NCI-H460. Further, the GI50 is > 100 µM (inactive) in the assay with NCI/ADR-RES; 37.3 µM (inactive) in the assay on OVCAR-5; 16.7 µM (inactive) in the assay on SK-MEL-5; 4.27 µM (inactive) in the assay with SNB-19; > 100 µM (inactive) in the assay with UO-31.
`CC(C)CNC(=O)Cn1c(-c2ccccc2)cc2ccccc21`: the GI50 in the assay on CCRF-CEM, in the assay on COLO 205, in the assay with DU-145, in the assay with HCT-116, in the assay on K562 and with LOX IMVI was > 100 µM (inactive) throughout. Moreover, the GI50 with M14, in the assay on MCF7, with MOLT-4, with Malme-3M, in the assay on NCI-H23 and with NCI-H460 was > 100 µM (inactive) each time. For the same compound, the GI50 in the assay with NCI/ADR-RES, in the assay with OVCAR-5, with SF-539, with SK-MEL-5, in the assay with SNB-19 and in the assay on UO-31 was > 100 µM (inactive) each time.
With `COC(=O)C(=O)C(C(=O)C(N)=O)c1nc2ccc(C(=O)c3ccccc3)cc2nc1O` (stereo unspecified), the GI50 with A498 was > 100 µM (inactive); in the assay with CCRF-CEM it was > 100 µM (inactive); in the assay with HCT-116 it was > 100 µM (inactive); with K562, 34.2 µM (inactive); in the assay with LOX IMVI, > 100 µM (inactive); with M14 it was > 100 µM (inactive). For the same compound, the GI50 in the assay on MCF7 was 63.8 µM (inactive); in the assay with MOLT-4, 54.3 µM (inactive); with Malme-3M, > 100 µM (inactive); with NCI-H23, > 10 µM (inactive); with NCI-H460 it was 74.5 µM (inactive); in the assay with NCI/ADR-RES, 40.4 µM (inactive). In addition, the GI50 is > 100 µM (inactive) in the assay with OVCAR-5, 87.1 µM (inactive) in the assay on SF-539, 45.7 µM (inactive) in the assay on SK-MEL-5 and > 10 µM (inactive) with SNB-19.
`CC(C)CC1NC(=O)CCC(NC(=O)C(Cc2ccc(O)cc2)NC(=O)OCc2ccccc2)C(=O)NC(Cc2ccccc2)C(=O)NC(Cc2ccccc2)NC1=O` (stereo unspecified): the GI50 with CCRF-CEM, in the assay on COLO 205, in the assay on DU-145, in the assay with HCT-116, in the assay on K562 and in the assay with LOX IMVI was > 100 µM (inactive) each time. Besides, the GI50 in the assay with M14, with MCF7, with MOLT-4, in the assay with Malme-3M, in the assay on NCI-H23 and in the assay with NCI-H460 was > 100 µM (inactive) each time. In addition, the GI50 was > 100 µM (inactive) with NCI/ADR-RES; > 100 µM (inactive) in the assay on OVCAR-5; > 100 µM (inactive) with SF-539; > 100 µM (inactive) in the assay with SK-MEL-5; 56.6 µM (inactive) with SNB-19; > 100 µM (inactive) in the assay on UO-31.
Regarding `C[C@H](NC1=CC(=O)C(N[C@@H](C)[C@H](O)c2ccccc2)=CC1=O)[C@H](O)c1ccccc1`, the GI50 is > 100 µM (inactive) in the assay on A498; 57.8 µM (inactive) in the assay on CCRF-CEM; 68.5 µM (inactive) in the assay on COLO 205; > 100 µM (inactive) with DU-145; 68.4 µM (inactive) in the assay with HCT-116; > 100 µM (inactive) in the assay with K562. The GI50 in the assay on LOX IMVI was > 100 µM (inactive); with M14, > 100 µM (inactive); with MOLT-4, 37.2 µM (inactive); in the assay with Malme-3M, 67.6 µM (inactive); with NCI-H23, 67 µM (inactive); in the assay on NCI-H460 it was 63.8 µM (inactive). The GI50 is 92.7 µM (inactive) with NCI/ADR-RES; > 100 µM (inactive) in the assay with OVCAR-5; 63.8 µM (inactive) in the assay on SF-539; 49.5 µM (inactive) in the assay with SK-MEL-5; > 100 µM (inactive) in the assay on SNB-19; 64 µM (inactive) in the assay with UO-31.
`COC1OC2COC1(OCc1ccccc1)C1OC(C)(C)OC21` (stereo unspecified): the GI50 in the assay on A498, in the assay on CCRF-CEM, with COLO 205, with DU-145, with HCT-116 and in the assay on K562 was > 100 µM (inactive) in each case. The GI50 with M14, with MCF7, in the assay with MOLT-4, with Malme-3M, in the assay on NCI-H23 and with NCI-H460 was > 100 µM (inactive) throughout. Besides, the GI50 with NCI/ADR-RES, with OVCAR-5, with SK-MEL-5, in the assay with SNB-19 and with UO-31 was > 100 µM (inactive) each time.
With `CCCCCCCCCCCCCOCCOCCOCCCCC(O)CCCCCCCCCC1=C[C@H](C)OC1=O` (stereo partly specified), the GI50 in the assay with CCRF-CEM is 9.86 µM (inactive); in the assay on COLO 205, 20.9 µM (inactive); with DU-145, 21.7 µM (inactive); in the assay with HCT-116 it was 0.766 µM (active); in the assay on K562, 21.2 µM (inactive); in the assay with LOX IMVI, 4.31 µM (inactive). Besides, the GI50 in the assay with M14 is 27.2 µM (inactive); in the assay with MCF7 it was 10.1 µM (inactive); with MOLT-4, 7.59 µM (inactive); in the assay with NCI-H23, 13.7 µM (inactive); in the assay on NCI-H460, 17.5 µM (inactive); in the assay on NCI/ADR-RES, 10 µM (inactive). The GI50 in the assay on OVCAR-5 was 28 µM (inactive); in the assay on SF-539, 18.7 µM (inactive); with SK-MEL-5, 6.93 µM (inactive); in the assay with SNB-19, 20.7 µM (inactive); with UO-31, 16 µM (inactive).
In the case of `Cn1c(=O)c2[nH]c(Nc3cccc(Cl)c3)nc2n(C)c1=O`, the GI50 is 3.96 µM (inactive) in the assay on CCRF-CEM; 3.6 µM (inactive) in the assay with COLO 205; 4.76 µM (inactive) in the assay with DU-145; 5.4 µM (inactive) in the assay on K562; 7.13 µM (inactive) in the assay with LOX IMVI; 5.6 µM (inactive) with M14. The GI50 in the assay with MCF7 is 3.79 µM (inactive); with MOLT-4, 3.13 µM (inactive); in the assay with Malme-3M it was 3.65 µM (inactive); in the assay with NCI-H23, 2.63 µM (inactive); with SK-MEL-5 it was 4.28 µM (inactive).
Regarding `CC(=O)Nc1ccc(C(=O)N2N=C(C)/C(=C/c3cccc([N+](=O)[O-])c3)C2=O)cc1`, the GI50 in the assay on CCRF-CEM, in the assay with COLO 205, in the assay with HCT-116, with K562, with LOX IMVI and with M14 was > 100 µM (inactive) each time. For the same compound, the GI50 in the assay on MOLT-4, in the assay with Malme-3M, in the assay on NCI-H23, in the assay with NCI-H460, in the assay on OVCAR-5 and with SF-539 was > 100 µM (inactive) each time. Also, the GI50 in the assay with SK-MEL-5, in the assay with SNB-19 and in the assay with UO-31 was > 100 µM (inactive) in each case.
Take `C=C1C(=O)OC2C3C(=C)[C@@H](OC(C)=O)CC3C(C)=CC(OC(=O)C(C)(O)C(C)OC(C)=O)[C@@H]12` (stereo partly specified): the GI50 was 16.7 µM (inactive) with A498; 2.84 µM (inactive) in the assay with CCRF-CEM; 4.15 µM (inactive) with COLO 205; 16.2 µM (inactive) in the assay with DU-145; 5.02 µM (inactive) in the assay with HCT-116; 3.35 µM (inactive) in the assay on K562. The GI50 with LOX IMVI was 4.89 µM (inactive); in the assay with M14, 7.6 µM (inactive); with MCF7 it was 10.7 µM (inactive); in the assay on MOLT-4, 3.04 µM (inactive); in the assay on Malme-3M it was 6.7 µM (inactive); in the assay with NCI-H23, 13.2 µM (inactive). The GI50 with NCI-H460 is 17.6 µM (inactive); with OVCAR-5, 11.9 µM (inactive); with SF-539, 13.8 µM (inactive); in the assay with SK-MEL-5 it was 7.4 µM (inactive); in the assay on SNB-19, 85.5 µM (inactive); in the assay with UO-31, 12.4 µM (inactive).
As to `O=C1c2ccccc2-c2nc(-c3cccc([N+](=O)[O-])c3)nnc21`, the GI50 in the assay with CCRF-CEM was 7.14 µM (inactive); with COLO 205 it was 3.91 µM (inactive); in the assay with DU-145 it was 4.25 µM (inactive); in the assay with HCT-116 it was 23.1 µM (inactive); in the assay on K562, 5.94 µM (inactive); in the assay on M14, 23 µM (inactive). For the same compound, the GI50 in the assay with MCF7 is 11.4 µM (inactive); in the assay with MOLT-4 it was 9.73 µM (inactive); with Malme-3M it was 17.5 µM (inactive); in the assay with NCI-H23, 17.6 µM (inactive); in the assay with NCI-H460, 3.96 µM (inactive); with NCI/ADR-RES it was 13.4 µM (inactive). Moreover, the GI50 with OVCAR-5 is 20.1 µM (inactive); in the assay with SF-539, 22.6 µM (inactive); with SK-MEL-5, 2.69 µM (inactive); in the assay with SNB-19, 13.9 µM (inactive); with UO-31, 12.3 µM (inactive).
On to `COC(=O)c1cc(C#Cc2cc(OC)ccc2OC)ccc1OC`, for which the GI50 in the assay on COLO 205 was 24.5 µM (inactive); in the assay on K562 it was < 0.01 µM (active); in the assay with LOX IMVI, 32.1 µM (inactive); with M14 it was 34.8 µM (inactive); with MCF7, 36.5 µM (inactive); in the assay with MOLT-4, 19.3 µM (inactive). In addition, the GI50 in the assay on Malme-3M was 44.3 µM (inactive); with NCI-H23, 41.4 µM (inactive); in the assay on NCI-H460, 56.8 µM (inactive); in the assay with NCI/ADR-RES, 47.5 µM (inactive); with OVCAR-5 it was > 100 µM (inactive); in the assay on SK-MEL-5, 24.4 µM (inactive). Also, the GI50 with SNB-19 is > 100 µM (inactive); in the assay on UO-31, 40.1 µM (inactive).

These data come from ChEMBL document CHEMBL1201862, “PubChem BioAssay data set” (2004).
